Patent publication US20130116263A1, “PAK INHIBITORS FOR THE TREATMENT OF CELL PROLIFERATIVE DISORDERS” (AFRAXIS, INC., priority 2011, published 2013)
Where two headings read alike, the source gives them in different places.

Columns and labels:
Type in all cases: biochemical
[1] = target: PAK1 (Homo sapiens, UniProt Q13153); experiment: In vitro PAK inhibition assay (Z'-LYTE, SelectScreen), PAK1
Description: (§1) Compounds are screened in 1% DMSO (final) in the well. For 10 point titrations, 3-fold serial dilutions are conducted. All Peptide/Kinase Mixtures are diluted to a 2× working concentration in the appropriate Kinase Buffer
The 2×PAK1/Ser/Thr 19 mixture is prepared in 50 mM HEPES pH 7.5, 0.01% BRIJ-35, 10 mM MgCl2, 1 mM EGTA.
(§2) 1. Add the following solutions to a well in a 384-well plate: • 2.5 μL of 4× Test Compound OR (100 nL 100× Test Compound plus 2.4 μL kinase buffer) • 5 μL of 2× Peptide/Kinase (PAK) Mixture • 2.5 μL of 4×ATP Solution
(§3) 3. Incubate the PAK Kinase Reaction at room temperature for 60-minutes
(§4) 4. Add 5 μL of Development Reagent Solution to each well
(§5) 6. Incubate the Development Reaction for 60-minutes
(§6) 7. Determine the fluorescence using a fluorescence plate reader
(§7) SelectScreen® Kinase Profiling Service uses XLfit from IDBS.
(§8) The representative IC50 value with a known inhibitor for each kinase was determined at the ATP bin nearest to the ATP Km app.

[2] = target: PAK2 (PAK65) (Homo sapiens, UniProt Q13177); experiment: In vitro PAK inhibition assay (Z'-LYTE, SelectScreen), PAK2
Description: as §1
The 2×PAK2 (PAK65)/Ser/Thr 20 mixture is prepared in 50 mM HEPES pH 7.5, 0.01% BRIJ-35, 10 mM MgCl2, 1 mM EGTA. The final 10 μL Kinase Reaction consists of 0.29-6 ng PAK2 (PAK65) and 2 μM Ser/Thr 20 in 50 mM HEPES pH 7.5, 0.01% BRIJ-35, 10 mM MgCl2, 1 mM EGTA.
as §2, §3, §4, §5, §6, §7, §8

[3] = target: PAK3 (Homo sapiens, UniProt O75914); experiment: In vitro PAK inhibition assay (Z'-LYTE, SelectScreen), PAK3
Description: as §1
The 2×PAK3/Ser/Thr 20 mixture is prepared in 50 mM HEPES pH 7.5, 0.01% BRIJ-35, 10 mM MgCl2, 1 mM EGTA.
as §2, §3, §4, §5, §6, §7, §8

[4] = target: PAK4 (Homo sapiens, UniProt O96013); experiment: In vitro PAK inhibition assay (Z'-LYTE, SelectScreen), PAK4
Description: as §1
The 2×PAK-4/Ser/Thr 20 mixture is prepared in 50 mM HEPES pH 7.5, 0.01% BRIJ-35, 10 mM MgCl2, 1 mM EGTA. The final 10 μL Kinase Reaction consists of 0.1-0.75 ng PAK-4 and 2 μM Ser/Thr 20 in 50 mM HEPES pH 7.5, 0.01% BRIJ-35, 10 mM MgCl2, 1 mM EGTA. After the 1 hour Kinase Reaction incubation, 5 μL of a 1:256 dilution of Development Reagent A is added.
as §2, §3, §4, §5, §6
SelectScreen® Kinase Profiling Service uses XLfit from IDBS. The dose response curve is curve fit to model number 205 (sigmoidal dose-response model).
The table below provides specifications and data around each kinase. The representative IC50 value with a known inhibitor for each kinase was determined at the ATP bin nearest to the ATP Km app.

Chain of PAK1 (Q13153 whole entry): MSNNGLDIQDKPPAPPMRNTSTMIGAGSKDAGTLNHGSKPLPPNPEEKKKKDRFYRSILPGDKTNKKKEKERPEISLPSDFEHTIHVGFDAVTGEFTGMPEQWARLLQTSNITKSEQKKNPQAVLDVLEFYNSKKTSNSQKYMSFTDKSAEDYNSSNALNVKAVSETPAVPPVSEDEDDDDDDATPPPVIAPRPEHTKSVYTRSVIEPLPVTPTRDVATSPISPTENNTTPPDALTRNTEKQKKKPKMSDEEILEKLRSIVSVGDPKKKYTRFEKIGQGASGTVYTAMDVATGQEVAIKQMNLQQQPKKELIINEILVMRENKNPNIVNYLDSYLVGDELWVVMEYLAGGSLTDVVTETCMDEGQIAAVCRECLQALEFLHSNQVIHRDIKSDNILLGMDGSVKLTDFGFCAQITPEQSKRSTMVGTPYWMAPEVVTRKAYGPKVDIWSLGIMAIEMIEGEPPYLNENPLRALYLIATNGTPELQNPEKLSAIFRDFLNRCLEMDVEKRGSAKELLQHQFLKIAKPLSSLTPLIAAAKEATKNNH
Chain of PAK2 (PAK65) (Q13177 whole entry): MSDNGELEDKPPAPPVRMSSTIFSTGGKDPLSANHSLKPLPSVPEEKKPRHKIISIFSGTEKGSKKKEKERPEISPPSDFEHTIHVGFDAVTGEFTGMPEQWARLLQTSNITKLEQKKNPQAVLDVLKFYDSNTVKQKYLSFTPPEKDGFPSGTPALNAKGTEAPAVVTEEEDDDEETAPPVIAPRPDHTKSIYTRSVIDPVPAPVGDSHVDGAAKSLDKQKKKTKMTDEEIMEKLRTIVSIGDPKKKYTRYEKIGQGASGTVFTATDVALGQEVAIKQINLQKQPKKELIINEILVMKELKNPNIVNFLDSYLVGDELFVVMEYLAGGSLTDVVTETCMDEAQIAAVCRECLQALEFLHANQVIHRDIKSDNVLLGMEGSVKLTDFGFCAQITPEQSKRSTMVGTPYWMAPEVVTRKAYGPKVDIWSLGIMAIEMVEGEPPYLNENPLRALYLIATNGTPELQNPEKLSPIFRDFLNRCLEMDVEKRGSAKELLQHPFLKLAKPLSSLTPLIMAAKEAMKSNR
Chain of PAK4 (O96013 whole entry): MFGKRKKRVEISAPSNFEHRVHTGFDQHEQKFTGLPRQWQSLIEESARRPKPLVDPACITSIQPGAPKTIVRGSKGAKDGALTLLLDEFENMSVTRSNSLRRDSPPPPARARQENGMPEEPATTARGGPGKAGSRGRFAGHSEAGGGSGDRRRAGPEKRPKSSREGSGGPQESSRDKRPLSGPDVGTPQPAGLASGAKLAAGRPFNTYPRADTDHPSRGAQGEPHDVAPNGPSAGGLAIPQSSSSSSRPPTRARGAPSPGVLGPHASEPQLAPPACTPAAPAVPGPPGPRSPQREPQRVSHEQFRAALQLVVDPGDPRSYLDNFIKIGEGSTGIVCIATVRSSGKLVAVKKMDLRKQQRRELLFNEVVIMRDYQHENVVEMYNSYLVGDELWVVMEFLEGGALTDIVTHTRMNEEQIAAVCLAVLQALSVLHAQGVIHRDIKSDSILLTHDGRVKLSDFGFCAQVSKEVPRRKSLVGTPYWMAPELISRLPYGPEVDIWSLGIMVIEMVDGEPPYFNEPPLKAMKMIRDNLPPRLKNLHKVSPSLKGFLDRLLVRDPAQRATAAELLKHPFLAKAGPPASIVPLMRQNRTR
Chain of PAK3 (O75914 1-544 isoform O75914-2): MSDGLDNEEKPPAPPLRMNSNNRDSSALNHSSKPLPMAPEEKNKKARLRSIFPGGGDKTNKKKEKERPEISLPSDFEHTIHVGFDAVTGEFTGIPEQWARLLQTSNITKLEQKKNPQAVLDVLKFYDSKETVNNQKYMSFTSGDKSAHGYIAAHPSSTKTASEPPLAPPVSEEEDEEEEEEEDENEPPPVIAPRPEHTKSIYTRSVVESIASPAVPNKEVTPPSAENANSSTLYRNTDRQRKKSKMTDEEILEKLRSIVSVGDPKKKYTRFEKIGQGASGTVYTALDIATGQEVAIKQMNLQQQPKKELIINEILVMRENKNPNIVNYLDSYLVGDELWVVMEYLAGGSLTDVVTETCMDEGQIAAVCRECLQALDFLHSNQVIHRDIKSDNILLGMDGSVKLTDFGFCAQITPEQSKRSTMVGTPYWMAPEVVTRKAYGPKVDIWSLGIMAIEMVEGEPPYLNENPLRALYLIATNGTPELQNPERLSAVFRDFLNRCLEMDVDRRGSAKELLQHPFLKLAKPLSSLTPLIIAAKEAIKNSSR

| Compound | IC50 ([1]; read-out: PAK1 IC50) | IC50 ([2]; read-out: PAK2 IC50) | IC50 ([3]; read-out: PAK3 IC50) | IC50 [4] | IC50 [1] | IC50 [2] | IC50 ([3]; PAK3 IC50 (nM)) |
| --- | --- | --- | --- | --- | --- | --- | --- |
| CCn1c(=O)c(-c2ccc(-c3cnc(C)cn3)cc2Cl)cc2cnc(N[C@@H]3CCOC3)nc21 [Example 50] | 50 to 500 nM | 50 to 500 nM | 500 to 5000 nM | > 5000 nM |  |  |  |
| CCn1c(=O)c(-c2ccc(-c3cncc(C)n3)cc2Cl)cc2cnc(N[C@H]3CC[C@H](CN)CC3)nc21 [Example 87] | < 50 nM | < 50 nM | < 50 nM | > 5000 nM |  |  |  |
| CCn1c(=O)c(-c2ccc(-c3nccnc3C)cc2Cl)cc2cnc(NC3CCN(C(C)=O)CC3)nc21 [Example 80] | 500 to 5000 nM | 50 to 500 nM | 500 to 5000 nM | > 5000 nM |  |  |  |
| Cc1nc(-c2ccc(-c3cc4cnc(NC5CCOCC5)nc4n(Cc4ccccc4C(F)(F)F)c3=O)c(Cl)c2)no1 [Example 24] |  |  |  | > 5000 nM | 50 to 500 nM | 50 to 500 nM | 50 to 500 nM |
| CCn1c(=O)c(-c2ccc(-c3cccnc3F)cc2Cl)cc2cnc(N[C@H]3CCOC3)nc21 [Example 41] | < 50 nM | 50 to 500 nM | 50 to 500 nM | > 5000 nM |  |  |  |
| Cc1cncc(-c2ccc(-c3cc4cnc(N[C@H]5CCOC5)nc4n(CCCN(C)C)c3=O)c(Cl)c2)n1 [Example 102] | < 50 nM | < 50 nM | 50 to 500 nM | > 5000 nM |  |  |  |
| CCn1c(=O)c(-c2ccc(-c3cnccc3C)cc2Cl)cc2cnc(N[C@@H]3CCOC3)nc21 [Example 49] | 50 to 500 nM | 500 to 5000 nM | 500 to 5000 nM | > 5000 nM |  |  |  |
| CCn1c(=O)c(-c2ccc(-c3noc(C)n3)cc2Cl)cc2cnc(NC3CCOCC3)nc21 [Example 4] | 50 to 500 nM | 50 to 500 nM | 50 to 500 nM | > 5000 nM |  |  |  |
| CCn1c(=O)c(-c2ccc(-c3ccncc3C)cc2Cl)cc2cnc(NC3CCOCC3)nc21 [Example 46] | 500 to 5000 nM | 500 to 5000 nM | 500 to 5000 nM | > 5000 nM |  |  |  |
| Cc1nccnc1-c1ccc(-c2cc3cnc(NC4CCOCC4)nc3n(C)c2=O)c(Cl)c1 [Example 9] | 50 to 500 nM | 50 to 500 nM | 50 to 500 nM | > 5000 nM |  |  |  |
| Cc1cncc(-c2ccc(-c3cc4cnc(NCC5CC5)nc4n([C@H]4CC[C@H](N)CC4)c3=O)c(Cl)c2)n1 [Example 113] | < 50 nM | < 50 nM | < 50 nM | 500 to 5000 nM |  |  |  |
| Cc1nccnc1-c1ccc(-c2cc3cnc(NC4CCOCC4)nc3n(Cc3ccccc3C(F)(F)F)c2=O)c(Cl)c1 [Example 21] | < 50 nM | < 50 nM | < 50 nM | > 5000 nM |  |  |  |
| CCn1c(=O)c(-c2ccc(-c3cnc(C)s3)cc2Cl)cc2cnc(N[C@@H]3CCOC3)nc21 [Example 55] | 50 to 500 nM | 50 to 500 nM | 500 to 5000 nM | > 5000 nM |  |  |  |
| Cc1cnc(-c2ccc(-c3cc4cnc(NC5CCOCC5)nc4[nH]c3=O)c(Cl)c2)s1 [Example 14] | > 5000 nM | > 5000 nM | 50 to 500 nM | > 5000 nM |  |  |  |
| CCn1c(=O)c(-c2ccc(-c3nccnc3C)cc2Cl)cc2cnc(NC3CCCN(C)C3)nc21 (centres unmarked) [Example 81] | 50 to 500 nM | 50 to 500 nM | > 5000 nM | > 5000 nM |  |  |  |
| CCn1c(=O)c(-c2ccc(-c3cncc(C)n3)cc2Cl)cc2cnc(N[C@H]3CCOC3)nc21 [Example 27] | 50 to 500 nM | < 50 nM | 50 to 500 nM | > 5000 nM |  |  |  |

| Compound | IC50 ([1]; read-out: PAK1 IC50) | IC50 ([2]; read-out: PAK2 IC50) | IC50 ([3]; read-out: PAK3 IC50) | IC50 [4] | IC50 [1] | IC50 [2] | IC50 ([3]; PAK3 IC50 (nM)) |
| --- | --- | --- | --- | --- | --- | --- | --- |
| Cc1cncc(-c2ccc(-c3cc4cnc(NC(C)C)nc4n([C@H]4CC[C@H](N)CC4)c3=O)c(Cl)c2)n1 [Example 116] | < 50 nM | < 50 nM | < 50 nM | 500 to 5000 nM |  |  |  |
| CCn1c(=O)c(-c2ccc(-c3ccc(C)nc3)cc2Cl)cc2cnc(N[C@@H]3CCOC3)nc21 [Example 56] | 500 to 5000 nM | 50 to 500 nM | > 5000 nM | > 5000 nM |  |  |  |
| CCn1c(=O)c(-c2ccc(-c3cncc(C)n3)cc2Cl)cc2cnc(NCCCC3CCN(C)CC3)nc21 [Example 68] | 50 to 500 nM | 50 to 500 nM | 50 to 500 nM | > 5000 nM |  |  |  |
| Cc1cncc(-c2ccc(-c3cc4cnc(N[C@H]5CCOC5)nc4n([C@H]4CC[C@H](N)CC4)c3=O)c(Cl)c2)n1 [Example 110] | < 50 nM | < 50 nM | < 50 nM | > 5000 nM |  |  |  |
| CCn1c(=O)c(-c2ccc(-c3nccnc3C)cc2Cl)cc2cnc(NC3CCSCC3)nc21 [Example 18] | 50 to 500 nM | 50 to 500 nM | 50 to 500 nM | > 5000 nM |  |  |  |
| CCn1c(=O)c(-c2ccc(-c3cncc(C)n3)cc2Cl)cc2cnc(N[C@H]3CCCNC3=O)nc21 [Example 69] | > 5000 nM | > 5000 nM | > 5000 nM | > 5000 nM |  |  |  |
| Cc1cncc(-c2ccc(-c3cc4cnc(N[C@H]5CCOC5)nc4n(C4CCNCC4)c3=O)c(Cl)c2)n1 [Example 106] | 50 to 500 nM | 50 to 500 nM | 50 to 500 nM | > 5000 nM |  |  |  |
| Cc1cncc(-c2ccc(-c3cc4cnc(NC5CCOCC5)nc4n(C4CCCC4)c3=O)c(Cl)c2)n1 [Example 89] | 50 to 500 nM | 50 to 500 nM | 50 to 500 nM | > 5000 nM |  |  |  |
| CCn1c(=O)c(-c2ccc(-c3cncc(C)n3)cc2Cl)cc2cnc(NC3CCC(CCN(C)C)CC3)nc21 (centres unmarked) [Example 70] | < 50 nM | < 50 nM | 50 to 500 nM | > 5000 nM |  |  |  |
| CCn1c(=O)c(-c2ccc(-c3cncc(C)c3)cc2Cl)cc2cnc(N[C@@H]3CCOC3)nc21 [Example 61] | 50 to 500 nM | 50 to 500 nM | 500 to 5000 nM | > 5000 nM |  |  |  |
| Cc1nccnc1-c1ccc(-c2cc3cnc(N[C@@H]4CCOC4)nc3n(Cc3ccccn3)c2=O)c(Cl)c1 [Example 123] | 50 to 500 nM | < 50 nM | 50 to 500 nM | > 5000 nM |  |  |  |
| COCCn1c(=O)c(-c2ccc(-c3cnccn3)cc2Cl)cc2cnc(NC3CCOC3)nc21 (centres unmarked) [Example 53] | 50 to 500 nM | 50 to 500 nM | 500 to 5000 nM | > 5000 nM |  |  |  |
| Cc1cncc(-c2ccc(-c3cc4cnc(NC5CCOCC5)nc4n(Cc4ccccc4Cl)c3=O)c(Cl)c2)n1 [Example 42] | < 50 nM | 50 to 500 nM | 50 to 500 nM | > 5000 nM |  |  |  |
| CCn1c(=O)c(-c2cc(C)c(-c3noc(C)n3)cc2Cl)cc2cnc(N[C@@H]3CCOC3)nc21 [Example 92] |  |  | 50 to 500 nM |  |  |  |  |
| CCn1c(=O)c(-c2ccc(-c3cncc(C)n3)cc2Cl)cc2cnc(NCCC3CCN(C)CC3)nc21 [Example 67] |  |  |  | > 5000 nM |  |  | 50 to 500 nM |
